Measured values reported in a compilation of properties of binary mixtures (doi:10.1016/j.molliq.2012.09.002).

Assay: xn = mol fraction of the nth substance listed
Conditions: 101 kPa

CN(CCO)CCO + CCCCCC[n+]1ccn(C)c1.F[B-](F)(F)F
x1 = 1
Conditions	viscosity [mPa·s]
318.15 K	27.5
323.15 K	22

CCCCCC[n+]1ccn(C)c1.F[B-](F)(F)F + CN(CCO)CCO
viscosity [mPa·s]
Conditions	x2 = 0	x2 = 0.097	x2 = 0.192	x2 = 0.2909	x2 = 0.3916	x2 = 0.4949	x2 = 0.5936	x2 = 0.6935	x2 = 0.7928	x2 = 0.8824
303.15 K	85	81.7	78.6	75.6	–	–	67.1	64.6	–	60.1
308.15 K	69	65.9	63.1	60.3	57.6	55.1	52.7	50.5	48.3	46.5
313.15 K	55	52.5	50.2	48	45.8	43.7	–	40	38.3	–
318.15 K	43	41.1	39.3	37.6	35.9	–	32.8	31.4	30.1	28.9
323.15 K	36	34.2	32.6	31	29.5	28	26.7	25.5	24.3	23.3
